row,melting point [°C],SMILES
1,159 to 160,CCCc1c(OS(=O)(=O)N(C)C)cc2oc3cc(Cl)cn3c(=O)c2c1O
2,141 to 143,COC(=O)C1=Cc2cc(OCc3ccc(F)cc3)ccc2S(=O)(=O)CC1
3,140 to 141,CCOC(=O)c1sc(S(C)(=O)=O)c2c1CCc1cnn(C)c1-2
4,181 to 183,O=C1Cc2ccccc2N1Nc1ccncc1F
5,137 to 138,Cn1ncc(CC(=O)O)c1OCCCc1cn(-c2ccc(C(F)(F)F)cn2)nc1C1CCCCC1
6,220 to 223,CCn1nc(C)c2nc(C)nc(O)c21
7,202 to 203,Cc1c(NC(=O)c2ccc(-c3ccc4c(c3)CCO4)cc2F)ccc2cc(CN3CCCCC3)cnc12
8,243 to 247,CS(=O)(=O)Nn1c(=O)[nH]c2cc(C(F)(F)F)c(CCCO)cc2c1=O
9,185 to 187,CC1(C)Cc2c(Cl)c(N)cc(C(=O)O)c2O1
10,106 to 108,CCCCNC(=O)Oc1ccc(Oc2ccc(Cl)cc2)cc1
11,123,CCCCOC(=O)CCC(C)(c1ccc(O)c(C(C)(C)C)c1)c1ccc(O)c(C(C)(C)C)c1
12,122 to 123,CON=C(c1ccccc1OCc1ccc(Cl)cc1Cl)n1ccnc1
13,190,O=C(Nc1cccc2c1C(=O)c1c-2n[nH]c1-c1ccc(N2CCNCC2)cc1)NN1CCC[C@@H]1CO
14,80 to 81,COC(=O)CCCc1ccc(S(=O)(=O)Nc2ccc(Cl)cc2)cn1
15,132 to 134,CCCCCCC1c2sccc2CCN1CCNC(=O)c1ccc(NS(C)(=O)=O)cc1 (stereo unspecified)
16,138 to 142,COc1ccc(S(=O)(=O)n2c(CCCC(=O)O)cc3cc(Cl)ccc32)cc1
17,101,O=S(Cc1ccccc1)c1ncc(Br)cn1 (stereo unspecified)
18,264 to 269,O=C(O)c1ccc2c(c1)C(=O)c1ccccc1OC2
19,281 to 285,Cc1ccc2c(c1)-n1cc(C(=O)O)nc1CO2
20,72 to 74,O=C(Oc1ccc(Cl)c(OCC2CC2(Cl)Cl)c1)N1CCCC1 (stereo unspecified)
21,262 to 265,CCN1C(=O)C2Cc3c([nH]c4ccccc34)C(c3ccc(N(C)C)cc3)N2C1=O (stereo unspecified)
22,247 to 248,CCn1cc(C(=O)C(=O)O)c2ccc(-c3ccc(C(F)(F)F)cc3)cc21
23,228 to 230,Cc1cc(C)c2ncc(NC(=O)C=Cc3ccc(O)cc3)c(-c3ccccc3Cl)c2c1
24,145 to 147,COCc1nc2c([N+](=O)[O-])cc(Br)cc2n1C

row,melting point [°C],SMILES
1,75 to 78,CCN1CCN(CCc2ccc(-c3ccc4c(Nc5cc(OC)c(Cl)cc5Cl)c(C#N)cnc4c3)cc2)CC1
2,163 to 166,Cc1nc(NC(=O)c2ccccc2)sc1C(=O)NCC1CC1
3,195 to 197,CC(=O)c1ccc2c(c1)ncn2-c1cccc(-c2cccnc2)c1
4,163 to 164,COCC(=O)Nc1cc2c(cc1C#N)C(Nc1ccc(C(=O)OC(C)(C)C)cc1)CC2 (stereo unspecified)
5,207 to 208,O=C(O)Cc1ccc(NC(=O)c2ccccc2)cc1
6,198,COC(=O)CCn1c(C(=O)OCc2ccccc2)cc2c(C)c(C)c(OC)cc21
7,98 to 100,COc1ccc(N)nc1C
8,229,COc1cc(C(=O)c2ncc3c(OC)cccn23)ccc1N
9,94 to 95,CCOc1nsnc1S(C)(=O)=O
10,216 to 218,O=C(Oc1ccc(-c2cc3ccc(OC(=O)c4ccccc4)cc3s2)cc1)c1ccccc1
11,298 to 301,CC(=O)Nc1cccc(-c2nn3cnnc3cc2C)c1
12,163 to 167,COc1ccccc1Cc1cnc(NCCSCc2nc[nH]c2C)[nH]c1=O
13,397 to 399,O=C(O)c1ccc2nc(-c3ccc(F)cc3)[nH]c(=O)c2c1
14,126 to 128,Cc1cc(-c2ccc(S(C)(=O)=O)cc2)n(-c2ccc(C)c(C)c2)c1
15,126 to 127,CC(C)(C)NC(=O)c1cc(Cl)ccc1N
16,> 270,NC(=O)c1nc(-c2cccc(O)c2)nc2c1[nH]c(=O)n2-c1ccccc1C1CCCCC1
17,86 to 87,CC[C@H](C)[C@H](Nc1nc2ccccc2c(=O)o1)C(=O)OC
18,235 to 237,COc1ccc(O)c2c1C(=O)N(Cc1ccccc1)S2=O (stereo unspecified)
19,176 to 177,COc1cc2sc(C(=N)NO)cc2cc1OC(F)F
20,222,NS(=O)(=O)c1ccc(N2CCN(CCC3=CCCc4ccccc43)CC2)cc1
21,283,CNC(=O)c1ccccc1Nc1nc(Nc2ccc3c(c2)CCCC(=O)N3)ncc1Cl
22,132 to 134,CCc1c(-c2ccc(O)cc2)c2cc(COCCN3CCCCC3)c3cccc1n32
23,149 to 152,COc1ccc(-c2ccc3nnn(Cc4ccc5ncccc5c4)c3n2)cc1OC
24,180 to 181,O=C1CC(c2ccccc2)c2ccccc2CN1 (stereo unspecified)

row,melting point [°C],SMILES
1,125 to 127,COc1cc(Cl)ccc1-c1ccc(C(C)=O)cc1
2,111 to 114,Fc1ccccc1-c1ccc2cccnc2n1
3,78,COc1ccc2occ(CCN3CCN(c4cccc5cccnc45)CC3)c2c1
4,72 to 73,COC(=O)c1ccc(Cl)cc1NC(=O)CSc1cccc(OC)c1
5,182 to 185,Fc1nccn1C(c1ccccc1)(c1ccccc1)c1ccccc1
6,118 to 120,CCC(CC)Oc1nc(C)nc(Nc2c(C)cc(C)cc2C)c1C(=O)O
7,168 to 171,CNC1=NS(=O)(=O)N=C1NCCSCc1ccccn1
8,183 to 184,O=C(O)CCc1c(-c2ccccc2)noc1O
9,70 to 71,O=C(CCl)CCCc1ccc(CCCC(=O)CCl)cc1
10,195 to 196,COC(=O)c1cc(N2C(=O)CCC2=O)c(Cl)c(S(N)(=O)=O)c1
11,99 to 100,COC(=O)C(C)(C)CCCOc1cc(C)c(NC(C)=O)cc1C
12,203 to 206,Cc1cc2c(cc1C#Cc1ccc(C(=O)O)cc1)C(C)(C)CCC2
13,141 to 142,COc1cc2c(c3c1OC(C)(C)C3)C(c1cccc(C(=O)NCC(N)=O)c1)=NC(C)(C)C2
14,116 to 118,O=C(c1ccc(C(F)(F)F)cc1)c1cc(O)c(O)c([N+](=O)[O-])c1
15,174 to 178,CC(C)(C)c1cc(C(=O)OCCN(CCO)C(=O)c2cc(C(C)(C)C)c(O)c(C(C)(C)C)c2)cc(C(C)(C)C)c1O
16,152 to 153,O=C(Cc1cc(F)ccc1F)N1CCNc2ncc(I)cc21
17,159 to 160,CN(CC(=O)Nc1ccc2[nH]ncc2c1)Cc1ccccc1
18,62 to 64,Cc1nsc(CCCOc2c(C)cc(-c3noc(C(F)F)n3)cc2C)n1
19,219 to 222,O=S1(=O)N=CN(C2CCCCC2)c2cc(Cl)c(Cl)cc21
20,204 to 205,Cc1onc(-c2ccccc2)c1-c1csc(NC(=O)C(N)=O)n1
21,181 to 182,Cc1cc(C)c2c(=O)[nH]c(-c3cc(C)c(OCCN4CCCC4)c(C)c3)nc2c1
22,254 to 256,CC(=O)c1c(O)c(=O)[nH]c2cc(Cl)ccc2c1=O
23,189 to 190,CC(=O)OC1CSC(Oc2ccc(-c3cncc(C)c3)nc2)C(OC(C)=O)C1OC(C)=O (stereo unspecified)
24,72 to 74,COC(=O)c1cc(C(C)=O)ccc1OC

row,melting point [°C],SMILES
1,54 to 55,COCOc1cc(C(=O)OC)[nH]n1
2,146,COc1cc(Cc2cnc(NCCO)nc2N)cc(OC)c1OC
3,55,C[C@H](CCC[C@@H](C)[C@H]1C(=O)C[C@H]2[C@@H]3CC=C4C[C@@H](O)CC[C@]4(C)[C@H]3CC[C@]12C)CN1C(=O)c2ccccc2C1=O
4,163 to 165,O=C(NCc1ccccc1)c1ccc(-c2ccc3nnn(Cc4ccc5ncccc5c4)c3n2)cc1F
5,134 to 135,CCCn1c(CCOC)nc2c(N)nc3cc(OCCCNC(=O)OC(C)(C)C)ccc3c21
6,49 to 51,COC(=O)c1ccc(OC(C)=O)c(-n2cccc2)c1
7,119 to 120,O=C1c2cccc(Br)c2CN1Cc1cccc(C(F)(F)F)c1
8,108 to 109,CC(C)OC(=O)Nc1ccc(Cl)c(C(=O)OC(C)C)c1
9,120 to 121,CNS(=O)(=O)c1cc(OC)c(OC)c(C(=O)NCC2CCCN2CC2=CCCCC2)c1 (stereo unspecified)
10,105,CC(C)Cc1ccc2c(c1)C(CO)c1cc(CC(C)C)ccc1-2
11,275,Nc1ccc(-c2ccc(N)c([N+](=O)[O-])c2)cc1[N+](=O)[O-]
12,141 to 142,COC(=O)C1C(N2C(=O)c3ccccc3C2=O)C(=O)N1Cc1ccc(OC)cc1 (stereo unspecified)
13,176 to 177,NC(=O)CNC(=O)c1ccnc(-c2cccc3cc(Cc4cccc(C(F)(F)F)c4)sc23)c1
14,310 to 311,COc1ccc(-c2c[nH]c3cc(OC)c(OC)cc3c2=O)cc1
15,113 to 115,O=C(Oc1ccc(Oc2ccccc2)cc1)Oc1ccc([N+](=O)[O-])cc1
16,158 to 160,Cc1cc2c(c3c1NC(=O)C(C)(C)C3)OC(C)(CBr)C2 (stereo unspecified)
17,232 to 234,O=C1CNC(=O)N1c1ccncc1
18,226 to 229,O=c1oc2c(c(O)c1Br)c(=O)n(Cc1ccccc1)c1ccccc21
19,108,CC(C)Sc1cc(SC(C)C)c2ccc3c(SC(C)C)cc(SC(C)C)c4ccc1c2c43
20,210 to 212,CC(C(=O)O)c1ccc2c(Br)c(OCc3ccc4ccccc4n3)ccc2c1 (stereo unspecified)
21,240 to 241,CC(=O)Oc1ccc2cccc(O)c2n1
22,95 to 98,N#CC(c1ccccc1)(c1ccccc1)n1ccnc1
23,175,COc1ccc(S(=O)(=O)Nc2c(C)cc(C#N)cc2C(=O)O)cc1
24,134,COc1ccc(S(=O)(=O)N2CCCC2c2ccc(F)cc2)cc1 (racemic)

row,SMILES,melting point [°C]
1,N#CC1=NC(Cl)(Cl)N=C1Cl,114 to 115
2,CC1(CN2CCN(C(=O)Cc3ccc(Cl)c(Cl)c3)CC2)Cn2cc([N+](=O)[O-])nc2O1 (stereo unspecified),189 to 191
3,Clc1ccc(N2CCC3(CCNCC3)CC2)cc1,95.5 to 97.4
4,CC(=NO)c1ccc2c(c1)C(c1ccccc1F)=NC(C)C(=O)N2C (stereo unspecified),101 to 103
5,Cc1nc2ccc3c(c2o1)OC(CN1CC=C(c2ccccc2)CC1)CO3 (stereo unspecified),170 to 173

# From a melting point compilation (Tetko et al.; mined from patent text by program, amines drawn as free bases though some values may be those of a salt)
